The text below walks through data of PMC8467576, “Novel Ubiquitin Specific Protease-13 Inhibitors Alleviate Neurodegenerative Pathology” (Metabolites, 2021).

This experiment has as its system tyrosine hydroxylase (TH). As to the kind of experiment: Tyrosine hydroxylase staining in striatum of TgA53T mice. The class given is in vivo, mouse. The settings on record: 40 mg/Kg I.P. daily for 7 days, vs DMSO. The source says:
To ascertain the mechanistic effects of BK50118-C on alpha-synuclein clearance, we performed immunostaining in striatum of TgA53T mice. […] We also performed the staining of tyrosine hydroxylase (TH) in the striatum of TgA53T mice. TH is the enzyme responsible for catalyzing the rate limiting step in synthesis of L-3,4-dihydroxyphenylalanine(L-DOPA) which is a precursor for dopamine (DA). Staining of TH will help to evaluate the status of DA producing neurons in the SN and their terminals in the striatum.
BK50118-C is one of novel small molecule inhibitors of USP13 synthesized in our laboratory. For BK50118-C treatment, approximately 15 months old (±1 month) male and female TgA53T mice were treated with intraperitoneal injection of vehicle (DMSO) or BK50118-C at the daily dosage of 10 mg/Kg or 40 mg/Kg for 7 days. Animals were age and sex-matched in their respective treatment cohorts. All animals were sacrificed after treatment. […]
Immunohistochemistry was performed on the 20 µm thick brain sections for evaluation of ubiquitination of alpha-synuclein. […] The optic densitometry of co-localization of ubiquitin with alpha-synuclein was measured using Image J. Tyrosine hydroxylase (TH) is the limiting enzyme in DA synthesis, so probing for TH+ neurons will help to evaluate the status of DA producing neurons in the SN and their terminals in the striatum. […]

The structures appear in SMILES notation.

Consider `Fc1ccc2nccc(OCc3ccccc3)c2c1` [BK50118-C, 4-benzyloxy-6-fluoroquinoline], for which the “tyrosine hydroxylase (TH) staining” value is “did not show any noticeable effects”.
